Measurements taken from US20220119446A1, “BIOMARKERS AND TREATMENT OF NEURONAL INJURY AND NEURODEGENERATION” (Board of Supervisons of Louisiana State University and …, priority 2018, published 2022).
“Also recorded” adds a separate entry of the source. * marks the point of attachment. Boc = CC(C)(C)OC(=O)*

B1: Wnt5a: Recombinant Human/Mouse Wnt-5a Protein, CHO-derived (Gln38-Lys380), R&D systems 645-WN (protein)
chain: QVVIEANSWWSLGMNNPVQMSEVYIIGAQPLCSQLAGLSQGQKKLCHLYQDHMQYIGEGAKTGIKECQYQFRHRRWNCSTVDNTSVFGRVMQIGSRETAFTYAVSAAGVVNAMSRACREGELSTCGCSRAARPKDLPRDWLWGGCGDNIDYGYRFAKEFVDARERERIHAKGSYESARILMNLHNNEAGRRTVYNLADVACKCHGVSGSCSLKTCWLQLADFRKVGDALKEKYDSAAAMRLNSRGKLVQVNSRFNSPTTQDLVYIDPSPDYCVRNESTGSLGTQGRLCNKTSEGMDGCELMCCGRGYDQFKTVQTERCHCKFHWCCYVKCKKCTEIVDQFVCK

Experiments:
[1] = test system: ARPE-19 cells and hpRPE; experiment: Apoptosis by Hoechst staining in RPE cells under UOS; type: cell-based, human; details: for apoptosis by UOS in the presence of the Wnt ligand: RPE cells under UOS with recombinant Wnt5a; for cell death by UOS on addition of Wnt5a: ARPE-19 cells and hpRPE under UOS, Wnt5a 50 ng/ml
Protocol: ARPE-19 cells, can be plated and grown in DMEM/F-12 containing 10% FBS and 1× penicillin/streptomycin at 37° C., 5% CO2, 99% relative humidity for 24 h. […] 15-LOX-1 deficient cells can be maintained in the same medium as ARPE-19 with the addition of 500 μg/mL Geneticin (Life Technologies Corporation, Carlsbad, Calif.). Transfection can be performed in all cases using Lipofectamine 2000 (Life Technologies Corporation, Carlsbad, Calif.) following the manufacturer's recommendations. […] Experiments with transfection efficiency that yielded less than 80% can be discarded. For siRNA, we used 6 μl of Lipofectamine 2000 per 50 pmol of siRNA per mL of incubation medium, and, for plasmids, we used 6 μl of Lipofectamine 2000 per 2 μg of plasmid per mL of incubation medium. Cells can be incubated for 5 hours at 37° C., 5% CO2 and 99% relative humidity. […] When siRNA/plasmid co-transfection is required, siRNA and plasmid-carrying transfection mixes can be prepared separately and added one after the other in the same well. Oxidative stress treatments can be performed using 600 (ARPE-19) or 1600 (hRPE) μM H2O2, along with 10 ng/mL TNFα, for the required time indicated in each experiment. The treatment we used employed the low serum (0.5% serum) without hFGF. Treatment to induce uncompensated oxidative stress (UOS) can be performed after 8 hours of low-serum medium incubation unless specifically noted. Wnt5a, Wnt3a or NPD1 can be added immediately before induction of UOS. In the secretion experiments, Pitstop 2 can be added to the medium 2 hours before harvesting.
(§1) Immunostaining can be performed in 8-well slide chambers and the Hoechst staining in 24-well plates. […] Briefly, cells can be fixed using 4% paraformaldehyde in PBS 1× for 20 min at room temperature or overnight at 4° C. After three washes with PBS, cells can be permeabilized using 0.1% Triton™ X-100 for five minutes and blocked using 10% normal serum and 1% BSA for one hour. […] Hoechst staining can be performed using same protocol of fixation. In one embodiment, permeabilization is done using methanol for 20 min at room temperature. […] Dying cells can be identified by size (0 to 50 pixels), intensity threshold, and circularity. The ratio of hyperpyknotic cells over the total can be calculated for nine randomly chosen fields per sample obtained from three independent wells per experiment. Each experiment can be repeated at least three times to confirm the findings.
ARPE-19 cells, were plated and grown in DMEM/F-12 containing 10% FBS and 1× penicillin/streptomycin at 37° C., 5% CO2, 99% relative humidity for 24 h. […] 15-LOX-1 deficient cells were maintained in the same medium as ARPE-19 with the addition of 500 μg/mL Geneticin (Life Technologies Corporation). Transfection was performed in all cases using Lipofectamine 2000 (Life Technologies Corporation) following the manufacturer's recommendations. […] Experiments with transfection efficiency that yielded less than 80% were discarded. For siRNA, we used 6 μl of Lipofectamine 2000 per 50 pmol of siRNA per mL of incubation medium, and, for plasmids, we used 6 μl of Lipofectamine 2000 per 2 μg of plasmid per mL of incubation medium. Cells were incubated for 5 hours at 37° C., 5% CO2 and 99% relative humidity. […] When siRNA/plasmid co-transfection was required, siRNA and plasmid-carrying transfection mixes were prepared separately and added one after the other in the same well. […] The treatment we used employed the low serum (0.5% serum) without hFGF. Treatment to induce uncompensated oxidative stress (UOS) was performed after 8 hours of low-serum medium incubation unless specifically noted. Wnt5a, Wnt3a or NPD1 was added immediately before induction of UOS.

[2] = test system: Wnt5a/FZD5; experiment: Immunocytochemistry of Wnt5a/FZD5 colocalization and vesicles in hpRPE cells; type: cell-based, human; details: for size of FZD5/Wnt5a vesicles: Wnt5a added; for size of FZD5/Wnt5a vesicles / vesicle load (mean intensity per vesicle) / intensity and number of Wnt5a-positive vesicles / number of FZD5-positive vesicles: IMARIS; for vesicle load (mean intensity per vesicle): external Wnt5a added; for number of Wnt5a/FZD5 colocalized vesicles per field: UOS 1600 μM H2O2, 2 hours, +/− 50 ng/ml Wnt5a, no Pitstop2
Protocol: To ascertain localization and interaction between FZD5 and Wnt5a we incubated hpRPE undergoing UOS with Wnt5a+/−NPD1 or other lipid mediators.
as §1
In an embodiment involving early stages of apoptosis, the total number of cells per field is assessed and counted to ensure unbiased observations. […] Settings can be adjusted in the conditions that show higher intensity and can be used throughout the remaining samples. In an embodiment, Pearson's colocalization coefficient (PCC) is obtained using FV1200 analysis software for every field in each experiment, and the mean and SEM are depicted in FIGS. 7-11.
Immunostaining was performed in 8-well slide chambers and the Hoechst staining in 24 well plates. […] Briefly, cells were fixed using 4% paraformaldehyde in PBS 1× for 20 min at room temperature or overnight at 4° C. After three washes with PBS, cells were permeabilized using 0.1% Triton™ X-100 for five minutes and blocked using 10% normal serum and 1% BSA for one hour. […] Hoechst staining was performed using same protocol of fixation, but permeabilization was done using methanol for 20 min at room temperature. […] Dying cells were identified by size (0 to 50 pixels), intensity threshold and circularity. The ratio of hyperpyknotic cells over the total was calculated for nine randomly chosen fields per sample obtained from three independent wells per experiment. Each experiment was repeated at least three times to confirm the findings. In the experiments involving early stages of apoptosis, we assessed the total number of cells per field and counted them to ensure unbiased observations. […] Pearson's colocalization coefficient (PCC) was obtained using FV1200 analysis software for every field in each experiment, and the mean and SEM are depicted in Figures S1-S5. […] IMARIS software analysis was performed building a colocalization channel using the Costes thresholding, and the colocalized elements were analyzed using the spots function using the settings different spots sites, background subtraction and local contrast. The output obtained consisted on a collection of sizes (one per element in each picture) or the mean of the intensity in each spot.

Molecule	apoptosis by UOS in the presence of the Wnt ligand ([1]; Hoechst staining)	apoptosis in cells only exposed to UOS ([1]; no Wnt5a added, Hoechst staining)	size of FZD5/Wnt5a vesicles ([2]; hpRPE under UOS)	vesicle load (mean intensity per vesicle) ([2]; hpRPE under UOS)	intensity and number of Wnt5a-positive vesicles ([2]; hpRPE under UOS)	number of FZD5-positive vesicles ([2]; hpRPE under UOS)	number of Wnt5a/FZD5 colocalized vesicles per field ([2]; hpRPE)	UOS-dependent NFkB activation and apoptosis (FIG. 18B legend) [1]	mode of Wnt5a and FZD5 signal intensity ([2]; hpRPE under UOS, absence of rWnt5a)	quantity of large only-Wnt5a positive spots ([2]; hpRPE, absence of Wnt5a)	cell death by UOS on addition of Wnt5a [1]	cell death by UOS on addition of Wnt5a ([1]; listed as Recombinant Wnt5a)	effect of Wnt5a alone on RPE cells (apoptosis) ([1]; resting cells, no UOS)
t-Boc-NH-Met-Asp-Gly-Cys-Glu-Leu-CO2H (Boc-MDGCEL-OH) [Box5]	blocked apoptosis; also recorded: hindered apoptosis	decreased apoptosis; also recorded: prevented cell death	Neither NPD1 nor Box5 affected the magnitude of the Wnt5a effect	did not affected vesicle loads that showed FZD5/clathrin or Wnt5a/clathrin signal	did not modify the increase in intensity and number induced by UOS	decrease the number of FZD5-positive vesicles	decreased Wnt5a induction	–	–	–	–	–	–
CC/C=C\C[C@H](O)\C=C/C=C/C=C/[C@H](O)C/C=C\C/C=C\CCC(=O)O [NPD1, 10R,17S-dihydroxy-docosa-4Z,7Z,11E,13E,15Z,19Z-hexaenoic acid]	blocked apoptosis; also recorded: hindered apoptosis	–	Neither NPD1 nor Box5 affected the magnitude of the Wnt5a effect	higher Wnt5a/FZD5 and FZD5/Clathrin vesicle intensity when Wnt5a was added	difference in mean intensity distribution	decrease the number of FZD5-positive vesicles	brought down the number of vesicles per field; also recorded: had the same effect; also recorded: decreased the amount of vesicles per field	counteracted these effects	restore both modes to control levels	increased	–	–	–
B1	–	–	–	–	–	–	increased the number of vesicles that co-localize with FZD5	–	–	–	enhanced cell death triggered by H2O2; also recorded: enhances the percentage of cell death induced by UOS	potentiated cell death by UOS	no effect
